Laboratory results reported in patent publication US20140017223A1, “Pharmaceutical Compositions Comprising A Pancreatic Enzyme Preparation With Viral Infectivity Reduced Below A Significant Level And Methods Of Preparing And Using The Same” (Aptalis Pharma Canada Inc., priority 2010, published 2014).

What was measured:
PPV [1] = experiment: Inactivation of spiked PPV in PEP by BPL, PPV titered by chloroform/PEG method (Example 3); format: cell-based, porcine parvovirus (PPV)
Description: U.S. Patent Publication No. 2009/0226414, incorporated by reference herein, provides a reproducible and efficient method for detecting an infectious non-enveloped virus, such as PPV, in an enzyme preparation (e.g., a pancreatic enzyme preparation) by treating the preparation prior to determining its viral infectivity. This method preserves the infectious non-enveloped virus while substantially eliminating the toxic enzyme materials from the PEP samples.
The steps of this method include:
(a) extracting a sample of the preparation at least two times with chloroform to produce a clarified sample with an upper phase and a lower phase;
(b) precipitating an aliquot of the upper phase from step (a) with polyethylene glycol (PEG);
(c) suspending the product from step (b) in a buffer;
(d) precipitating the product from step (c) with PEG;
(e) suspending the product from step (d) in a solution;
(f) removing excess PEG and fine particles from product (e) by chloroform, this allows (i) in step (e) the suspending in a 10-times smaller volume to increase the overall sensitivity up to 10-fold; and (ii) removal of the remaining interfering materials from the least diluted steps of the most toxic samples; and
(g) detecting the presence of or measuring the amount of infectious virus in the solution.
Pancrelipase powders from 2 different lots were each dissolved in 100 mM Tris, pH=8.3, at a concentration of 100 mg/ml. Two ml non-purified PPV viral stock (prepared using standard protocols (Arella et al., Physicichemical properties, production, and purification of parvoviruses. 1990, In Tijssen, P. (ed.), CRC handbook of parvoviruses. Boca Raton, Fla.: CRC Press, 11-30)) were added to 38 ml of the pancrelipase solution. The virus was mixed with the PEP using slow shaking at room temperature for one day. Aliquots were taken from the PPV-spiked pancrelipase stocks and each was incubated with different concentrations of BPL (available from Sigma-Aldrich, St. Louis, Mo.) (except the control) for 48 hours at room temperature (20° C.). […] Determination of the FFID50 was performed using the fluorescence assay as described in the PPV FFID-infectivity assay of U.S. Patent Publication No. 2009/0226414.
The experiment described in Example 1 was repeated except PEG-purified PPV was used for the infectivity assay as described in U.S. Patent Publication No. 2009/0226414.

protease = experiment: Protease activity of pancrelipase after BPL treatment, freezing and lyophilization (USP 31 method); format: biochemical; conditions: for Loss of Protease Activity: pancrelipase, freezing, lyophilization, precision 5-10%
Protocol: (§1) Enzymatic activity for the enzymes of a PEP (e.g., proteases, lipases, and amylases) can be determined, for example, by using the United States Pharmacopeia (USP) monographed methods (The United States Pharmacopeia and the National Formulary (USP 31/NF 26). 2008. Rockville (MD): United States Pharmacopeial Convention, Inc.).
(§2) The samples c-d from all the experiments were tested for lipase, protease, and amylase enzymatic activity using USP 31 monographed methods. See Example 11 and Table 11.
(§3) Table 11 presents the lipase, protease, and amylase activity for aliquots of the pancrelipase after BPL treatment for 30 min at 25° C. followed by freezing and lyophilization (same treatment as for samples in Example 10).

PPV [2] = experiment: Inactivation of PPV by 0.8% (v/v) BPL at 4° C. (Example 6); format: cell-based, porcine parvovirus (PPV); conditions: 0.8% BPL (4 h) at 4° C.
Protocol: Samples prepared as in Example 1 were treated for four hours with 0.8% (v/v) BPL at 4° C.

EMCV = experiment: Inactivation of spiked EMCV in pancrelipase by BPL, TCID50 titration on VERO cells (Example 2); format: cell-based, porcine encephalomyocarditis virus (EMCV); conditions: 48 h, 20° C.; for Detected EMCV titer: 0*=below detection limit of 10^3 TCID50/g
Protocol: Four different lots of pancrelipase powders were dissolved in 100 mM Tris, pH=8.3, at a concentration of 100 mg/ml. EMCV virus stock (prepared by Meng X J, Paul P S, Vaughn E M, Zimmerman J J. Development of a radiolabeled nucleic acid probe for the detection of encephalomyocarditis virus of swine. J Vet Diagn Invest. 1993 5:254-8) was mixed with the pancrelipase using slow shaking at room temperature for one day such that the final concentration of pancrelipase was 100 mg/ml. Aliquots were taken from the EMCV-spiked pancrelipase stocks and each was incubated with different concentrations of BPL (available from Sigma-Aldrich, St. Louis, Mo.) (except the control) for 48 hours at room temperature (20° C.). The level of inactivation was measured by the titration of EMCV infectivity on VERO cells using serial dilutions and determining the TCID50 as described in Hierholzer, J. C., Killington, R. A., 1996. Virus isolation and quantitation. In: Mahy, B. W. J., Kangro, H. O. (Eds.), Virology methods manual. Academic Press, London, pp. 25-46.

amylase = experiment: Amylase activity of pancrelipase after BPL treatment, freezing and lyophilization (USP 31 method); format: biochemical; conditions: for Loss of Amylase Activity: pancrelipase, freezing, lyophilization, precision 5-10%
Protocol: as §1, §2, §3

[3] = lyophilized samples treated with 0.4% BPL and 0.8% BPL

Q: `O=C1CCO1` [BPL, Beta-propiolactone] was tested. Which “PPV Titer reduction” value (PPV [1]; PEP #1, 0.04% (v/v) BPL) did it give?
A: Its value is 10 FFID50/g.

Q: And the “PPV Titer reduction” value (PPV [1]; PEP #1, 0.10% (v/v) BPL)?
A: Its value is 10 FFID50/g.

Q: What about the “PPV Titer reduction” value (PPV [1]; PEP #1, 0.25% (v/v) BPL) of the same compound?
A: Its value is 10^5 FFID50/g.

Q: And the “PPV Titer reduction” value (PPV [1]; PEP #2, 0.04% (v/v) BPL)?
A: The value was 10 FFID50/g.

Q: And the “PPV Titer reduction” value (PPV [1]; PEP #2, 0.10% (v/v) BPL)?
A: The value was 10^2 FFID50/g.

Q: What about the “PPV Titer reduction” value (PPV [1]; PEP #2, 0.25% (v/v) BPL) of the same compound?
A: The value was 10^5 FFID50/g.

Q: What about the “PPV Titer reduction” value (PPV [1]; PEP #3, 0.04% (v/v) BPL) of the same compound?
A: The value was 10 FFID50/g.

Q: And the “PPV Titer reduction” value (PPV [1]; PEP #3, 0.10% (v/v) BPL)?
A: The value was 10^2 FFID50/g.

Q: And the “PPV Titer reduction” value (PPV [1]; PEP #3, 0.25% (v/v) BPL)?
A: The value was 10^5 FFID50/g.

Q: What about the “PPV Titer reduction” value (PPV [1]; PEP #4, 0.04% (v/v) BPL) of the same compound?
A: Its value is 10 FFID50/g.

Q: And the “PPV Titer reduction” value (PPV [1]; PEP #4, 0.10% (v/v) BPL)?
A: Its value is 10^2 FFID50/g.

Q: And the “PPV Titer reduction” value (PPV [1]; PEP #4, 0.25% (v/v) BPL)?
A: The value was 10^4 FFID50/g.

Q: What about the Protease activity maintained (protease; [3]) of the same compound?
A: The Protease activity maintained was “maintained the majority”.

Q: What about the “Loss of Protease Activity” value (protease; 0.4% BPL 30 min 25° C.) of the same compound?
A: The value was 0%.

Q: What about the “Loss of Protease Activity” value (protease; 0.8% BPL 30 min 25° C.) of the same compound?
A: Its value is 0%.

Q: And the “Log Reduction” value (PPV [2]; media Mixture water + IPA)?
A: The value was 4.9 Log.

Q: What about the “Sample infectivity after treatment with BPL” value (PPV [2]; media Mixture water + IPA) of the same compound?
A: The value was 5.2 FFID50/g log.

Q: What about the “Log Reduction” value (PPV [2]; media Water) of the same compound?
A: Its value is 5.2 Log.

Q: What about the “Sample infectivity after treatment with BPL” value (PPV [2]; media Water) of the same compound?
A: The value was 5.0 FFID50/g log.

Q: And the “EMCV Titer reduction” value (EMCV; PEP #1, 0.1% (v/v) BPL)?
A: The value was 1.33 × 10^2 TCID50/g.

Q: And the “Detected EMCV titer” value (EMCV; PEP #1, 0.1% (v/v) BPL)?
A: Its value is 4.22 × 10^5 TCID50/g.

Q: And the “EMCV Titer reduction” value (EMCV; PEP #1, 0.2% (v/v) BPL)?
A: Its value is >10^5 TCID50/g.

Q: What about the “Detected EMCV titer” value (EMCV; PEP #1, 0.2% (v/v) BPL) of the same compound?
A: Its value is < 0* TCID50/g.

Q: And the “EMCV Titer reduction” value (EMCV; PEP #1, 0.4% (v/v) BPL)?
A: The value was >10^5 TCID50/g.

Q: What about the “Detected EMCV titer” value (EMCV; PEP #1, 0.4% (v/v) BPL) of the same compound?
A: Its value is < 0* TCID50/g.

Q: What about the “EMCV Titer reduction” value (EMCV; PEP #1, 0.8% (v/v) BPL) of the same compound?
A: The value was >10^5 TCID50/g.

Q: And the “Detected EMCV titer” value (EMCV; PEP #1, 0.8% (v/v) BPL)?
A: Its value is < 0* TCID50/g.

Q: What about the “EMCV Titer reduction” value (EMCV; PEP #2, 0.1% (v/v) BPL) of the same compound?
A: Its value is 1.78 × 10^2 TCID50/g.

Q: And the “Detected EMCV titer” value (EMCV; PEP #2, 0.1% (v/v) BPL)?
A: Its value is 3.16 × 10^5 TCID50/g.

Q: What about the “EMCV Titer reduction” value (EMCV; PEP #2, 0.2% (v/v) BPL) of the same compound?
A: Its value is >10^5 TCID50/g.

Q: And the “Detected EMCV titer” value (EMCV; PEP #2, 0.2% (v/v) BPL)?
A: Its value is < 0* TCID50/g.

Q: And the “EMCV Titer reduction” value (EMCV; PEP #2, 0.4% (v/v) BPL)?
A: Its value is >10^5 TCID50/g.

Q: What about the “Detected EMCV titer” value (EMCV; PEP #2, 0.4% (v/v) BPL) of the same compound?
A: Its value is < 0* TCID50/g.

Q: And the “EMCV Titer reduction” value (EMCV; PEP #2, 0.8% (v/v) BPL)?
A: The value was >10^5 TCID50/g.

Q: And the “Detected EMCV titer” value (EMCV; PEP #2, 0.8% (v/v) BPL)?
A: Its value is < 0* TCID50/g.

Q: And the “EMCV Titer reduction” value (EMCV; PEP #3, 0.1% (v/v) BPL)?
A: Its value is >10^5 TCID50/g.

Q: What about the “Detected EMCV titer” value (EMCV; PEP #3, 0.1% (v/v) BPL) of the same compound?
A: Its value is < 0* TCID50/g.

Q: What about the “EMCV Titer reduction” value (EMCV; PEP #3, 0.2% (v/v) BPL) of the same compound?
A: Its value is >10^5 TCID50/g.

Q: What about the “Detected EMCV titer” value (EMCV; PEP #3, 0.2% (v/v) BPL) of the same compound?
A: Its value is < 0* TCID50/g.

Q: And the “EMCV Titer reduction” value (EMCV; PEP #3, 0.4% (v/v) BPL)?
A: The value was >10^5 TCID50/g.

Q: What about the “Detected EMCV titer” value (EMCV; PEP #3, 0.4% (v/v) BPL) of the same compound?
A: Its value is < 0* TCID50/g.

Q: And the “EMCV Titer reduction” value (EMCV; PEP #3, 0.8% (v/v) BPL)?
A: Its value is >10^5 TCID50/g.

Q: And the “Detected EMCV titer” value (EMCV; PEP #3, 0.8% (v/v) BPL)?
A: Its value is < 0* TCID50/g.

Q: What about the “EMCV Titer reduction” value (EMCV; PEP #4, 0.1% (v/v) BPL) of the same compound?
A: The value was 1.33 × 10^3 TCID50/g.

Q: What about the “Detected EMCV titer” value (EMCV; PEP #4, 0.1% (v/v) BPL) of the same compound?
A: Its value is 7.50 × 10^4 TCID50/g.

Q: And the “EMCV Titer reduction” value (EMCV; PEP #4, 0.2% (v/v) BPL)?
A: The value was >10^5 TCID50/g.

Q: What about the “Detected EMCV titer” value (EMCV; PEP #4, 0.2% (v/v) BPL) of the same compound?
A: The value was < 0* TCID50/g.

Q: And the “EMCV Titer reduction” value (EMCV; PEP #4, 0.4% (v/v) BPL)?
A: Its value is >10^5 TCID50/g.

Q: What about the “Detected EMCV titer” value (EMCV; PEP #4, 0.4% (v/v) BPL) of the same compound?
A: Its value is < 0* TCID50/g.

Q: And the “EMCV Titer reduction” value (EMCV; PEP #4, 0.8% (v/v) BPL)?
A: The value was >10^5 TCID50/g.

Q: And the “Detected EMCV titer” value (EMCV; PEP #4, 0.8% (v/v) BPL)?
A: The value was < 0* TCID50/g.

Q: What about the Amylase activity maintained (amylase; [3]) of the same compound?
A: Its Amylase activity maintained is “maintained the majority”.

Q: And the “Loss of Amylase Activity” value (amylase; 0.4% BPL 30 min 25° C.)?
A: The value was 11.40%.

Q: And the “Loss of Amylase Activity” value (amylase; 0.8% BPL 30 min 25° C.)?
A: The value was 28.22%.
